Results taken from PMC10396955, “2-Oxabicyclo[2.1.1]hexanes as saturated bioisosteres of the ortho-substituted phenyl ring” (Nature Chemistry, 2023).
In brackets after ≈: the same amount, converted by molar mass.

Test system: not listed separately
Assay: physchem
Format: physicochemical
Conditions: Table S2; n-octanol/PBS pH 7.4; incubation 1
Experimental: Determination of Distribution Coefficient (LogD, pH 7.4) […]
n-octanol – phosphate buffered saline (PBS), pH 7.4. Distribution coefficient (or LogD) is a […]
Phosphate buffered saline, tablet (Sigma-Aldrich, USA; Cat # P4417)
Acetic acid (Enamine, Ukraine.)
DMSO stock solutions of the test compounds 10mM
Gradient HPLC system (Shimadzu, Japan)
MTR22 Multi Mix Rotator (UNICO, USA)
Laboratory Centrifuge, Sigma 4-15C, Qiagen (SIGMA GmbH, Germany) […]
allowed to mix in a rotator for 1 h at 30 rpm. Phase separation was assured by centrifugation for […]
dilution. The samples (both phases) were analyzed using a HPLC system coupled with a tandem mass spectrometer. Mebendazole was used as a reference compound. […]
where: SO – peak area of the analyte in octanol phase
S P – peak area of the analyte in PBS buffer do – dilution coefficient for octanol phase dp – dilution coefficient for aqueous phase
For `O=C(N[C@@H]1[C@H]2C[C@]1(c1ccc(Cl)cc1)CO2)c1cccnc1Cl` (relative stereo) [Compound 31], the “D (partition ratio), incubation 1” value was 3.05E+03.

Same assay, conditions: Table S2; n-octanol/PBS pH 7.4; incubation 2
For `O=C(N[C@@H]1[C@H]2C[C@]1(c1ccc(Cl)cc1)CO2)c1cccnc1Cl` (relative stereo) [Compound 31], the “D (partition ratio), incubation 2” value was 3.16E+03.

Same assay, conditions: Table S2; n-octanol/PBS pH 7.4; incubation 3
In the case of `O=C(N[C@@H]1[C@H]2C[C@]1(c1ccc(Cl)cc1)CO2)c1cccnc1Cl` (relative stereo) [Compound 31], the “D (partition ratio), incubation 3” value is reported as 3.13E+03.

Same assay, conditions: pH 7.4, LogD, pH 7.4 (mean)
`O=C(N[C@@H]1[C@H]2C[C@]1(c1ccc(Cl)cc1)CO2)c1cccnc1Cl` (relative stereo) [Compound 31] showed a logD at 1 h of 3.5.

Same assay, conditions: pH 7.4, LogD, pH 7.4, incubation 1
`O=C(N[C@@H]1[C@H]2C[C@]1(c1ccc(Cl)cc1)CO2)c1cccnc1Cl` (relative stereo) [Compound 31] gave a logD at 1 h of 3.48.

Same assay, conditions: pH 7.4, LogD, pH 7.4, incubation 2
For `O=C(N[C@@H]1[C@H]2C[C@]1(c1ccc(Cl)cc1)CO2)c1cccnc1Cl` (relative stereo) [Compound 31], the logD at 1 h was 3.5.

Same assay, conditions: pH 7.4, LogD, pH 7.4, incubation 3
`O=C(N[C@@H]1[C@H]2C[C@]1(c1ccc(Cl)cc1)CO2)c1cccnc1Cl` (relative stereo) [Compound 31] gave a logD at 1 h of 3.5.

Same assay, conditions: pH 7.4, logD (7.4)
`O=C(N[C@@H]1[C@H]2C[C@]1(c1ccc(Cl)cc1)CO2)c1cccnc1Cl` (relative stereo) [Compound 31] gave a logD at 1 h of 2.7 ± 0.2.

Test system: not listed separately
Assay: Metabolic stability in human liver microsomes
Format: in vitro ADME
Conditions: both sexes, human, liver microsomes, pH 7.4, human liver microsomes, 2 μM, 37 °C, with NADPH; 7 min
Experimental: (§1) The data acquisition and system control was performed using Analyst 1.6.3 software from AB Sciex. Methods Microsomal incubations were carried out in 96-well plates in 5 aliquots of 30 μL each (one for each time point). […] In the control reactions the NADPH-cofactor system was substituted with phosphate buffer. […] Each reaction was performed in duplicates. Five time points over 40 minutes were analyzed. The reactions were stopped by adding 4 volumes of methanol containing internal standard to incubation aliquots, followed by protein sedimentation by centrifuging at 5500 rpm for 4 minutes. […]. Supernatants were analyzed using the HPLC system coupled with tandem mass spectrometer. […] In some cases, the last time point is excluded from the calculations to ensure acceptable logarithmic linearity of decay.
For `O=C(N[C@@H]1[C@H]2C[C@]1(c1ccc(Cl)cc1)CO2)c1cccnc1Cl` (relative stereo) [Compound 31], the remaining at […], 2 µM was 107%.

Same assay, conditions: both sexes, human, liver microsomes, pH 7.4, human liver microsomes, 2 μM, 37 °C, with NADPH; 15 min
With `O=C(N[C@@H]1[C@H]2C[C@]1(c1ccc(Cl)cc1)CO2)c1cccnc1Cl` (relative stereo) [Compound 31] the remaining at […], 2 µM was 110%.

Same assay, conditions: both sexes, human, liver microsomes, pH 7.4, human liver microsomes, 2 μM, 37 °C, with NADPH; 25 min; read-out: % Remaining, Mean of 2
For `O=C(N[C@@H]1[C@H]2C[C@]1(c1ccc(Cl)cc1)CO2)c1cccnc1Cl` (relative stereo) [Compound 31], the remaining at 25 min, 2 µM was 107%.

Same assay, conditions: both sexes, human, liver microsomes, pH 7.4, human liver microsomes, 2 μM, 37 °C, with NADPH; 40 min; read-out: % Remaining, Mean of 2
For `O=C(N[C@@H]1[C@H]2C[C@]1(c1ccc(Cl)cc1)CO2)c1cccnc1Cl` (relative stereo) [Compound 31], the remaining at 40 min, 2 µM was 108%.

Same assay, conditions: both sexes, human, liver microsomes, pH 7.4, human liver microsomes, 0.42 mg protein per ml; Table S3; * approximate due to high stability; read-out: Clint
`O=C(N[C@@H]1[C@H]2C[C@]1(c1ccc(Cl)cc1)CO2)c1cccnc1Cl` (relative stereo) [Compound 31] showed a microsomal CLint at 2 µM of ~3 µL/min/mg.

Same assay, conditions: both sexes, human, liver microsomes, pH 7.4, human liver microsomes; * approximate due to high stability; read-out: t1/2
Compound `O=C(N[C@@H]1[C@H]2C[C@]1(c1ccc(Cl)cc1)CO2)c1cccnc1Cl` (relative stereo) [Compound 31] has a half-life at 2 µM of ~8.09 h.

Same assay, conditions: both sexes, human, liver microsomes, pH 7.4, human liver microsomes; Fig. 3; read-out: CIint, intrinsic clearance
With `O=C(N[C@@H]1[C@H]2C[C@]1(c1ccc(Cl)cc1)CO2)c1cccnc1Cl` (relative stereo) [Compound 31] the microsomal CLint at 2 µM was 3 µL/min/mg.

Same assay, conditions: both sexes, pH 7.4; human liver microsomes, no NADPH cofactor; 40 min; ** instability partially or completely not determined by CYP450 activity; read-out: % Remaining without cofactor, Mean of 2
For `O=C(N[C@@H]1[C@H]2C[C@]1(c1ccc(Cl)cc1)CO2)c1cccnc1Cl` (relative stereo) [Compound 31], the remaining at 40 min, 2 µM was 85%.

Test system: human liver microsomes
Assay: Metabolic stability in human liver microsomes
Format: in vitro ADME
Conditions: human liver microsomes
Experimental: as §1
`O=C(N[C@@H]1[C@H]2C[C@]1(c1ccc(Cl)cc1)CO2)c1cccnc1Cl` (relative stereo) [Compound 31] gave a CIint, intrinsic clearance of 3 µL/min/mg.

Test system: Fusarium oxysporum
Assay: Antifungal susceptibility testing (MIC, CLSI M38-A2 microdilution)
Format: cell-based
Conditions: Fig. 4e
Experimental: (§2) page 252: Antifungal susceptibility testing (determination of MIC values) The antifungal susceptibility tests were performed according to the Clinical and Laboratory Standards Institute (CLSI) […]-A2 protocol for mycelial fungi (1). Stock solutions were prepared by dissolving an appropriate amount of testing compounds in DMSO. Solutions of test compounds were added to the wells of a 96-well polystyrene microtiter plate (Colstar, USA) in the concentration range from 0.5 to 0.001 mg/mL. Mycelium growth was monitored photometrically at 490 nm by measuring the optical density of each well. Measurements were carried out two times: immediately after adding all components (RPMI 1640 broth, conidial suspension, test compound solutions) and after incubation plate at 26 °C for 48 h (2). MICs were the lowest testing compound concentrations that produced partial growth inhibition (50% of optical density relative to the control without testing compounds). The tests were performed in triplicate Results : Table S6. The MIC values of Fluxapyroxad , Boscalid , and their saturated analogues against Fusarium oxysporum , and Fusarium verticillioides Antifungal compaunds MIC, mg/mL Fusarium oxysporum Fusarium verticillioides Fluxapyroxad -* 0.250 Analogue (±)- 28 0.125 0.125 […] of 0.063 mg/mL. […]
`O=C(N[C@@H]1[C@H]2C[C@]1(c1ccc(Cl)cc1)CO2)c1cccnc1Cl` (relative stereo) [Compound 31] showed an MIC of 250 µg/mL (≈ 716 µM).

Same assay, conditions: Table S6, lowest concentration giving 50% of optical density relative to control, 26 °C, 48 h
`O=C(N[C@@H]1[C@H]2C[C@]1(c1ccc(Cl)cc1)CO2)c1cccnc1Cl` (relative stereo) [Compound 31] showed an MIC of 250 µg/mL (≈ 716 µM).

Test system: Fusarium verticillioides
Assay: as above
Format: cell-based
Conditions: Fusarium verticillioides; read-out: Maximal inhibition of growth
Experimental: as §2
`O=C(N[C@@H]1[C@H]2C[C@]1(c1ccc(Cl)cc1)CO2)c1cccnc1Cl` (relative stereo) [Compound 31] gave an inhibition at 250 µg/mL of 36.3 ± 1.9%.
